{
  "source": "patent US20180133283A1",
  "about": "“METHOD AND COMPOSITIONS FOR SYNCHRONIZING TIME OF INSEMINATION IN GILTS” (JBS UNITED ANIMAL HEALTH II LLC, priority 2012, published 2018)",
  "type_in_all_cases": "in vivo, swine",
  "key": {"[1]": {"test_system": "serum LH", "assay": "Example 5: blood collection and serum LH analysis (LH surge)", "settings": "for Gilts, which displayed a LH surge: number of gilts", "description": "A catheter was inserted non-surgically into the jugular vein (Kraeling et al. 1982) of a subpopulation of gilts in each treatment group (vehicle gel, n=8; 100 mcg triptorelin, n=6; 200 mcg triptorelin, n=7 and 400 mcg triptorelin, n=6). Ten mL blood samples were collected every 15 minutes for one hour prior to treatment, immediately following treatment (0) and at 0.5, 1, 2, 4, 6, 12, 18, 24, 36 and 48 hours after treatment. Blood samples were maintained at 4° C. until centrifuged at 800×g for 15 minutes within 12 hours of collection. The resulting serum was stored frozen until assayed for LH using validated procedures for pig serum (Kesner et al., 1987 and Kraeling et al., 1982). Onset, duration, and magnitude of the LH surge were analyzed. The LH data were analyzed with the General Linear Models procedure of SAS. Differences between treatments were tested on least squares means estimates using the T test at P<0.05. Onset of the LH surge is when serum LH concentration is greater than or equal to two standard deviations of the mean of the pre-treatment serum LH concentrations. Duration of the LH surge is the period between onset and when serum LH concentration is again less than or equal to two standard deviations of the mean of the pre-treatment serum LH concentrations. Magnitude of the LH surge is the maximum serum LH concentration reached during the LH surge."}, "[2]": {"test_system": "gilts", "assay": "Example 1: estrus observation (boar exposure, back pressure) after triptorelin gel", "settings": "raw averages; PTK 1-07 (rep 3); 200 mcg T at 120 h", "description": "(§1) All gilts were individually fed MATRIX® as a top-dress for 14 days at the recommended rate of 15 mg/gilt/day. Gilts were withdrawn from MATRIX® feeding (last top feed in the morning on Day 0) and allotted to treatments. Controls were treated with a 1.2% methylcellulose gel formulation without triptorelin at 96 hours following MATRIX® withdrawal (last top-dress). The remaining gilts received 200 mcg triptorelin, as the acetate, in a 1.2% methylcellulose gel formulation intravaginally at various times after MATRIX® withdrawal. The four treatments were: 1) vehicle gel (VG) treatment at 96 hours after MATRIX® withdrawal, 2) triptorelin gel (TG) treatment at 96 hours after MATRIX® withdrawal, 3) TG treatment at 120 hours after MATRIX® withdrawal and 4) TG treatment at 144 hours after MATRIX® withdrawal. All gilts were monitored for their estrous and ovulatory status as described below. Gilts included in replicate 1 were selected from terminal line commercial production gilts located in grow/finish barns. Sexual maturity, as indicated by one or more estrous periods, was not verified prior to the start of MATRIX® feeding. Gilts included in replicate 2 were selected from a maternal line gilt population. Sexual maturity was verified by at least one estrous period verified and recorded prior to starting MATRIX® feeding.\nFor post-treatment estrus detection, gilts were housed in individual pens. […]"}, "[3]": {"test_system": "gilts", "assay": "Example 5: estrus observation", "settings": "raw averages, PTK 2-07", "description": "For post-treatment estrus detection, gilts were housed in individual pens. Boars were housed in separate rooms, and/or at least 12 m away and downwind. To elicit signs of estrus, a mature boar was walked slowly in the alley in front of the gilts' crates, exposing each test gilt to visual, auditory and olfactory signals from the boar for up to 5 minutes. In keeping with standard practice at commercial farms, while the boar was near the front of the gilt's crate, estrus was tested by an experienced person applying back pressure to the midsection of the gilt combined with side rubbing. Estrus was confirmed when a gilt stood rigidly to the back pressure, with no vocalization and with some indication of an ear reflex. Gilts were not exposed to boars during the first three days after withdrawal of MATRIX® (Day 0 to Day 2). Estrus detection was performed daily on all gilts from Day 3 to Day 7."}, "[4]": {"test_system": "gilts", "assay": "Example 5: ovulation monitoring by transrectal ultrasonography after 100, 200 or 400 mcg triptorelin gel at 120 h after MATRIX withdrawal", "settings": "for Percentage ovulated by 48 hours: catheterized subpopulation; for % of Sows Ovulating: raw averages, PTK 2-07", "description": "All gilts were individually fed MATRIX® as a top-dress for 14 or 15 days at the recommended rate of 15 mg/gilt/day. Gilts were withdrawn from MATRIX® feeding (last top-dress in the morning on Day 0) and allocated to each of the following treatments. Controls were vehicle gel treated (vehicle gel without triptorelin) at 120 (+/−2) hours following MATRIX® withdrawal (last top dress). The other gilts were given 100, 200 or 400 mcg triptorelin as the acetate in a methylcellulose gel formulation 120 (+/−2) hours following MATRIX® withdrawal. The four treatments were:\n1. Vehicle gel (VG): vehicle gel without triptorelin at 120 (+/−2) hours after MATRIX® withdrawal.\n2. TG 100: 100 mcg (2 mL 50 mcg/mL) triptorelin gel at 120 (+/−2) hours after MATRIX® withdrawal.\n3. TG 200: 200 mcg (2 mL 100 mcg/mL) triptorelin gel at 120 (+/−2) hours after MATRIX® withdrawal.\n4. TG 400: 400 mcg (2 mL 200 mcg/mL) triptorelin gel at 120 (+/−2) hours after MATRIX® withdrawal.\nOvulation was monitored twice on Day 5 (8 hours and 16 hours post-treatment) and every 8 hours on Day 6 and Day 7 or until ovulation was confirmed or 176 hours following last MATRIX® feeding. The ovulatory status of all gilts was monitored by transrectal ultrasonography. An Aloka 500 ultrasound machine is used for this purpose, with a 7.5 MHz linear array transducer attached to a fixed-angle PVC stabilizing rod to facilitate insertion into the rectum. The transducer and PVC rod are coated with a gynecological lubricant and gently inserted into the rectum until the ovaries can be visualized, one at a time. The diameters of the three largest follicles were recorded (to the nearest 0.1 mm) at each scanning. A gilt was declared to have ovulated when the number of large follicles 6.5 mm) fell to less than 3.\n(§2) A single 2 mL dose of triptorelin gel or vehicle gel was deposited within approximately 1-2 cm posterior to the cervix with a catheter similar to those used for artificial insemination. The dose was delivered using a standard multi-dose applicator attached to the catheter. A new disposable sheath, which surrounds the catheter, was used for each gilt."}, "[5]": {"test_system": "gilts", "assay": "Example 1: ovulation monitoring by transrectal ultrasonography after 200 mcg triptorelin gel intravaginally at 96, 120 or 144 h after MATRIX withdrawal", "settings": "raw averages, PTK 1-07 (rep 3), 200 mcg T", "description": "as §1\nThe ovulatory status of all gilts was monitored by transrectal ultrasonography. For replicate one, ovulation was monitored two times on Day 5, then three times a day from Day 6 to Day 8. For replicate two, ovulation was monitored three times a day from Day 5 to Day 8. An Aloka 500 ultrasound machine with a 7.5 MHz linear array transducer attached to a fixed-angle PVC stabilizing rod to facilitate insertion into the rectum was used for this purpose. The transducer and PVC rod were coated with a gynecological lubricant and gently inserted into the rectum until the ovaries were visualized, one at a time. The diameters of the three largest follicles were recorded (to the nearest 0.1 mm) at each scanning. A gilt was declared to have ovulated when the number of large follicles (≥6.5 mm) fell to less than 3.\nas §2\nData were analyzed using the Mixed Models procedures of SAS. Models included main effects of time of treatment following the last feeding of MATRIX®, replicate, and treatment by replicate interaction. Differences between treatments were tested on least squares means estimates using the T test at P<0.05. Data for analysis were tested for assumptions of data normality."}, "[6]": {"settings": "relative to time of triptorelin gel treatment, 200 mcg T"}},
  "data": [
    {"smiles": "CC(C)C[C@H](NC(=O)[C@@H](Cc1c[nH]c2ccccc12)NC(=O)[C@H](Cc1ccc(O)cc1)NC(=O)[C@H](CO)NC(=O)[C@H](Cc1c[nH]c2ccccc12)NC(=O)[C@H](Cc1c[nH]cn1)NC(=O)[C@@H]1CCC(=O)N1)C(=O)N[C@@H](CCCNC(=N)N)C(=O)N1CCC[C@H]1C(=O)NCC(N)=O", "note": "[T, pGlu-His-Trp-Ser-Tyr-D-Trp-Leu-Arg-Pro-Gly-NH2]", "values": [
      {"measurement": "Duration of LH surge", "setting": "[1]; 200 mcg T", "value": 18},
      {"measurement": "Onset of LH surge", "setting": "[1]; LS mean ± SE, relative to time of triptorelin gel treatment, 100 mcg T", "value": "4 ± 3"},
      {"measurement": "Onset of LH surge", "setting": "[1]; LS mean ± SE, relative to time of triptorelin gel treatment, 400 mcg T", "value": "4 ± 4"},
      {"measurement": "Gilts, which displayed a LH surge", "setting": "[1]; 100 mcg T (n = 6)", "value": 4},
      {"measurement": "Gilts, which displayed a LH surge", "setting": "[1]; 200 mcg T (n = 7)", "value": 1},
      {"measurement": "Gilts, which displayed a LH surge", "setting": "[1]; 400 mcg T (n = 6)", "value": 5},
      {"measurement": "Onset of LH surge", "setting": "[1]; [6]", "value": 0.5},
      {"measurement": "Time of maximum LH conc.", "setting": "[1]; [6]", "value": 4, "unit": "h"},
      {"measurement": "Estrous Expression (%)", "setting": "[2]", "value": 100.0, "unit": "%"},
      {"measurement": "Estrous Expression (%)", "setting": "[3]; 100 mcg T at 120 h", "value": 75.0, "unit": "%"},
      {"measurement": "Estrous Expression (%)", "setting": "[3]; 200 mcg T at 120 h", "value": 81.0, "unit": "%"},
      {"measurement": "Percentage ovulated by 48 hours", "setting": "[4]; 100 mcg T (n = 6)", "value": 100, "unit": "%"},
      {"measurement": "Percentage ovulated by 48 hours", "setting": "[4]; 200 mcg T (n = 7)", "value": 100, "unit": "%"},
      {"measurement": "Percentage ovulated by 48 hours", "setting": "[4]; 400 mcg T (n = 6)", "value": 100, "unit": "%"},
      {"measurement": "% of Sows Ovulating", "setting": "[4]; 100 mcg T, 128 h post-MATRIX, 8 h post-T", "value": 0.0, "unit": "%"},
      {"measurement": "% of Sows Ovulating", "setting": "[4]; 100 mcg T, 136 h post-MATRIX, 16 h post-T", "value": 5.0, "unit": "%"},
      {"measurement": "% of Sows Ovulating", "setting": "[4]; 100 mcg T, 144 h post-MATRIX, 24 h post-T", "value": 20.0, "unit": "%"},
      {"measurement": "% of Sows Ovulating", "setting": "[4]; 100 mcg T, 152 h post-MATRIX, 32 h post-T", "value": 30.0, "unit": "%"},
      {"measurement": "% of Sows Ovulating", "setting": "[4]; 100 mcg T, 160 h post-MATRIX, 40 h post-T", "value": 60.0, "unit": "%"},
      {"measurement": "% of Sows Ovulating", "setting": "[4]; 100 mcg T, 168 h post-MATRIX, 48 h post-T", "value": 95.0, "unit": "%"},
      {"measurement": "% of Sows Ovulating", "setting": "[4]; 100 mcg T, 176 h post-MATRIX, 56 h post-T", "value": 100.0, "unit": "%"},
      {"measurement": "% of Sows Ovulating", "setting": "[4]; 200 mcg T, 128 h post-MATRIX, 8 h post-T", "value": 0.0, "unit": "%"},
      {"measurement": "% of Sows Ovulating", "setting": "[4]; 200 mcg T, 136 h post-MATRIX, 16 h post-T", "value": 0.0, "unit": "%"},
      {"measurement": "% of Sows Ovulating", "setting": "[4]; 400 mcg T, 128 h post-MATRIX, 8 h post-T", "value": 4.5, "unit": "%"},
      {"measurement": "% of Sows Ovulating", "setting": "[4]; 400 mcg T, 136 h post-MATRIX, 16 h post-T", "value": 9.1, "unit": "%"},
      {"measurement": "% of Sows Ovulating", "setting": "[4]; 400 mcg T, 168 h post-MATRIX, 48 h post-T", "value": 100.0, "unit": "%"},
      {"measurement": "% of Sows Ovulating", "setting": "[4]; 400 mcg T, 176 h post-MATRIX, 56 h post-T", "value": 100.0, "unit": "%"},
      {"measurement": "% of Sows Ovulating", "setting": "[5]; 128 h post-MATRIX, 8 h post-T", "value": 0.0, "unit": "%"},
      {"measurement": "% of Sows Ovulating", "setting": "[5]; 136 h post-MATRIX, 16 h post-T", "value": 10.0, "unit": "%"},
      {"measurement": "% of Sows Ovulating", "setting": "[5]; 144 h post-MATRIX, 24 h post-T", "value": 30.0, "unit": "%"},
      {"measurement": "% of Sows Ovulating", "setting": "[5]; 152 h post-MATRIX, 32 h post-T", "value": 70.0, "unit": "%"},
      {"measurement": "% of Sows Ovulating", "setting": "[5]; 160 h post-MATRIX, 40 h post-T", "value": 80.0, "unit": "%"},
      {"measurement": "% of Sows Ovulating", "setting": "[5]; 168 h post-MATRIX, 48 h post-T", "value": 90.0, "unit": "%"},
      {"measurement": "% of Sows Ovulating", "setting": "[5]; 176 h post-MATRIX, 56 h post-T", "value": 100.0, "unit": "%"}
    ]}
  ]
}
